Reference: patent US20240219394A1, “METHOD FOR MEASURING RESPONSE OF OLFACTORY RECEPTOR TO SUBSTANCE” (AJINOMOTO CO., INC., priority 2021, published 2024)

Tested on: control cells (HEK293T cells transfected with the empty vector Rho-pME18S)
Experiment: Luciferase assay: response of control cells to adenosine
Type: cell-based, human
Details: FIG. 1
Procedure: HEK293T cells expressing each of the 352 kinds of olfactory receptors were prepared according to the following procedure. […] The gene mixture and transfection reagent mixture were mixed, dispensed into each well of a poly-D-lysine-coated 384-well plate in a volume of 12.5 μL, and allowed to stand for 15 minutes in a clean bench. The HEK293T cells inoculated in 10-cm petri dishes on the previous day (2.5×10^6 cells/10 cm petri dish) were prepared at a density of 1.2×10^5 cells/mL, inoculated into each well of the 384-well plate in a volume of 25 μL, and cultured overnight in an incubator maintained at 37° C. and 5% C02. […]
The 352 olfactory receptors expressed in HEK293T cells couple with Golf to activate adenylate cyclase, thereby increasing the amount of intracellular cAMP. In this example, responses of the olfactory receptors to the test substances were measured by using a luciferase reporter gene assay, in which increase in intracellular cAMP amount is monitored as an increase in firefly luciferase-derived luminescence. […] In addition, luminescence value derived from Renilla luciferase was used as an internal standard to correct errors due to differences of gene transfer efficiency and cell number among the wells. […]

## Nc1ncnc2c1ncn2[C@@H]1O[C@H](CO)[C@@H](O)[C@H]1O [adenosine]
  Response of control cells to adenosine (Luc/hRluc value, increase in cAMP): caused increase in cAMP
